Columns and labels:
[1] = system: Holstein cows; assay: nine-week comparative activity and persistency test of glycopeptides; type: in vivo; conditions: 600 mg/head/day
Method: Another test was carried out to determine the comparative activity of glycopeptides and their persistency in altering milk production. Holstein cows were assigned as they calved to blocks of […] cows each. Within each block a random order of treatments was assigned. A nine-week study was started two weeks following calving. All cows underwent a one week preliminary period during which they received corn silage-concentrate, grain, hay and water. During the following eight week period, in addition to the normal feed ration, one group of six animals received no treatment (controls), another group of six animals received 600 mg/head/day actaplanin, and a third group of six cows received 600 mg/head/day of glycopeptide A35512B. Average daily milk production, milk composition, and persistency of milk production were analyzed. The data in Table VI are the averages for the daily determinations for the entire nine week trial period. The table reports average milk production and milk composition of nontreated controls and treated groups. The persistency values were calculated by dividing the average milk production during the eight week treatment period by average production during the preliminary non-treatment period. Persistency values express how well the treatment groups performed after initialization of treatment compared to performance before treatment initialization. Normal persistency for the trial was expected to be about 94 to about 96 percent. All treatment groups had higher persistencies, thus indicating an observable response to treatment even during a short term.

[2] = system: dairy cows; conditions: cited from earlier work

| SMILES | Milk Composition Fat [1] | Milk Composition Protein [1] | Milk Composition Solids [1] | protein content compared to non-treated controls [1] | Milk Produced ([1]; average of daily determinations, nine week trial) | Persistency ([1]; average production in eight week treatment period divided by preliminary period) | fat content of milk [2] | fat-corrected-milk production [2] | volume of milk produced [2] |
| --- | --- | --- | --- | --- | --- | --- | --- | --- | --- |
| COC(=O)[C@H]1NC(=O)[C@H]2NC(=O)[C@H](NC(=O)[C@@H]3NC(=O)C4NC(=O)[C@H](NC(=O)[C@H](N)c5cccc(O)c5Oc5cc(O[C@@H]6O[C@H](C)[C@H](O)[C@H](O)[C@@H]6O)c(Cl)c4c5)[C@H](O)c4ccc(cc4)Oc4cc3cc(c4O[C@@H]3O[C@H](CO)[C@@H](O)[C@@H](O[C@@H]4O[C@@H](C)[C@@H](O)[C@@H](O)[C@H]4O)[C@H]3O)Oc3ccc(cc3)[C@H]2O[C@H]2C[C@](C)(N)[C@H](O)[C@H](C)O2)c2ccc(O[C@H]3O[C@@H](CO)[C@H](O)[C@@H](O)[C@@H]3O)c(c2)-c2c(O)cc(O)cc21 [A35512B] | 3.36% | 3.36% | 11.44% | may be enhanced | 56.0 pounds/day | 99.4% |  |  |  |
| CC[C@@]1([C@@H]2O[C@@H]([C@H]3O[C@@](O)(CO)[C@H](C)C[C@@H]3C)C[C@@H]2C)CC[C@H]([C@]2(C)CC[C@]3(C[C@H](O)[C@@H](C)[C@@H]([C@@H](C)[C@@H](OC)[C@H](C)C(=O)O)O3)O2)O1 [monensin] |  |  |  |  |  |  | significantly reduced | unchanged | increase |

Reference: US4430328A, “Ruminant lactation improvement” (Eli Lilly and Company, priority 1982, dated 1984)
